Experimental data as given in patent EP0552379B1, “DIHYDROPYRIDINE DERIVATIVES, AND PROCESS FOR THEIR PREPARATION” (FUJISAWA PHARMACEUTICAL CO., LTD., priority 1991, dated 1993).

Columns and labels:
Wistar rats = test: Hypotensive effect (mean arterial pressure, femoral artery, intravenous administration); assay type: in vivo; conditions: dose 1.0 mg/kg, intravenously
Experimental: Three Wistar rats were used per group. Each animal was placed in a cage sized to the body after cannulation of catheters into the femoral artery and vein under ether anesthesia. Blood pressure was measured in the femoral artery by means of a pressure transducer and recorded as electrically integrated values of mean arterial pressure. Heart rate was counted from instant arterial pressure pulses by running the record paper at a faster speed periodically.
The test compound was administered intravenously through a catheter cannulated in the femoral vein more than 2 hours later the completion of the operation.

β receptor = β receptor binding (^3H-Dihydroalprenolol (DHA) binding to crude cardiac microsomal membrane); design: species or system SD strain rats; conditions: [^3H]DHA 1nM, rat heart microsomal membrane, 25°C, 30 minutes
Experimental: (3) β receptor binding Test methods (a) Crude cardiac microsomal membrane preparation SD strain rats were sacrificed by decapitation. The heart was removed and homogenized in buffer (0.25M sucrose, 10mM MOPS, pH7.4) by using Polytoron (Kinematica). The homogenate was homogenized by teflon glass homogenizer. The homogenate was centrifuged (1,000g x 10 min) to remove tissue clumps and the supernatant was centrifuged (10,000g x 10 min) twice. The supernatant was centrifuged (100,000g x 60 min) to yield pellets. The pellets were resuspended in buffer (50mM Tris-HCl, pH7.4), which were referred to as crude microsomal membrane fractions. The obtained suspensions were stored at -80°C until use. (b) ^3H-Dihydroalprenolol (DHA) binding to preparative membrane Frozen crude microsomal membrane fractions were thawed. [^3H) DHA (1nM) was incubated with 50 µl of the membrane preparation at 25°C for 30 minutes in a final volume of 200 µl. At the end of the incubation period, reaction mixture was quickly filtrated over a Whatman GF/C glass filter under aspiration. The filters were washed 5 times with 3ml of the buffer (50mM Tris-HCl, pH7.4). The radioactivity was counted in 6ml of Clear-sol I in Packard scintillation counter (Packard TRI-CARB 4530).

COC(=O)C1=C(C(F)(F)F)NC(C)=C(C(=O)OCCc2ccc(OCC(O)CNC(C)C)cc2)C1c1cccc([N+](=O)[O-])c1 (centres unmarked) [Dihydropyridine A, 2-{p-(2-hydroxy-3-isopropylaminopropoxy)phenyl}ethyl 1,4-dihydro-3-methoxycarbonyl-6-methyl-4-m-nitrophenyl-2-trifluoromethylpyridine-5-carboxylate]
Maximum change of blood pressure (Wistar rats): -39(%)
Ki (β receptor): 507 nM
